According to patent US20090258079A1, “Biocompatible Block Copolymer, Use Thereof and Manufacturing Method Thereof” (priority 2005, published 2009):

Experiments:
[1] = Solubilization of a drug by micelle formation with the block copolymer; type: physicochemical; conditions: acetic acid buffer (0.1 M), pH 4.5
[2] = drug without block copolymer, stated as known property; cited from earlier work
[3] = test system: Hartley male guinea pigs; conditions: guinea pig, in vivo
Excerpt: Hartley male guinea pigs which were 10 weeks old and weighed 338 to 490 g were used. […] The physiological saline was also sterilized by filtration with a 0.22 μm membrane filter.

[4] = test system: Hartley guinea pigs; conditions: guinea pig, in vivo, iv
Method: Hartley guinea pigs which were 7 weeks old and weighed 380 to 510 g were used. […] These substances were dissolved in physiological saline to a predetermined concentration, and the same amount of FCA (Freund's complete adjuvant) or FIA (Freund's incomplete adjuvant) was added to prepare a w/o emulsion. The FCA emulsion was first administered and then the FIA emulsion was administered under the skin of the back and foot pad of each guinea pig at a dose of 2.5 ml/kg on the second and third weeks for sensitization. […] These substances were dissolved in physiological saline to a predetermined concentration. The resulting solution was administered into the veins of the front feet or rear feet of the guinea pigs at a dose of 1.0 ml/kg on the fifth week for induction and observed for 4 hours. For 1 month after that, the weights of the guinea pigs were measured and the general conditions of the guinea pigs were observed once a week.

CC#CCC(C)[C@H](O)/C=C/[C@@H]1[C@H]2c3cccc(CCCC(=O)O)c3O[C@H]2C[C@H]1O (mixture of isomers) [beraprost sodium]
dissolution in acetic acid buffer [1]: precipitate was produced

CN(Cc1cnc2nc(N)nc(N)c2n1)c1ccc(C(=O)N[C@@H](CCC(=O)O)C(=O)O)cc1 [methotrexate]
solubility of the drug alone in water [2]: almost insoluble in water

Boc-(Leu-Leu-Ala-Lac)5-Leu-Phe-O-PEG4000-OH
toxicity by single dose intravenous administration ([3]; 20 mg/kg): not observed
general conditions ([3]; iv): Any special abnormality in the general conditions was not seen

B1: egg albumin: positive control in the ASA reaction test (protein, UniProt P01012 2-386, looked up)
Ovalbumin: GSIGAASMEFCFDVFKELKVHHANENIFYCPIAIMSALAMVYLGAKDSTRTQINKVVRFDKLPGFGDSIEAQCGTSVNVHSSLRDILNQITKPNDVYSFSLASRLYAEERYPILPEYLQCVKELYRGGLEPINFQTAADQARELINSWVESQTNGIIRNVLQPSSVDSQTAMVLVNAIVFKGLWEKAFKDEDTQAMPFRVTEQESKPVQMMYQIGLFRVASMASEKMKILELPFASGTMSMLVLLPDEVSGLEQLESIINFEKLTEWTSSNVMEERKIKVYLPRMKMEEKYNLTSVLMAMGITDVFSSSANLSGISSAESLKISQAVHAAHAEINEAGREVVGSAEAGVDAASVSEEFRADHPFLFCIKHIATNAVLFFGRCVSP
anaphylaxis reaction after induction administration [4]: anaphylaxis symptom was seen in all the guinea pigs
